Results taken from ChEMBL document CHEMBL4673218, “Kojyl cinnamate esters are peroxisome proliferator-activated receptor α/γ dual agonists” (Bioorg Med Chem, 2018).
The source made the active and inactive calls. The rule behind the calls is not given here.

Experiments:
[1] = Induction of adipogenesis in human AT-MSC assessed as adiponectin secretion at 30 uM in IDX medium incubated for 5 days by ELISA relative to IDX control; format: functional, Adipose tissue derived mesenchymal stem cell; conditions: time 5 day
[2] = target: T1, PPAR alpha/gamma (Homo sapiens) (UniProt P37231+Q07869); test: Agonist activity at PPARalpha/PPARgamma in human AT-MSC cells assessed as upregulation of HMGCS2 mRNA at 10 uM incubated for 3 days by qRT-PCR analysis; format: cell-based; conditions: Adipose tissue derived mesenchymal stem cell, filed as agonist, time 3.0 day
[3] = Induction of adipogenesis in human AT-MSC assessed as adiponectin secretion in IDX medium incubated for 5 days by ELISA; format: functional; conditions: adipose tissue derived mesenchymal stem cell
[4] = target: T1, PPAR alpha/gamma (Homo sapiens); test: Agonist activity at PPARalpha/PPARgamma in human NHEK cells assessed as upregulation of FASN mRNA at 10 uM incubated for 3 days by qRT-PCR analysis; format: cell-based; conditions: time 3.0 day
[5] = target: T1, PPAR alpha/gamma (Homo sapiens); test: Agonist activity at PPARalpha/PPARgamma in human NHEK cells assessed as upregulation of ACACB mRNA at 10 uM incubated for 3 days by qRT-PCR analysis; format: cell-based; conditions: time 3.0 day
[6] = target: T1, PPAR alpha/gamma (Homo sapiens); test: Agonist activity at PPARalpha/PPARgamma in human NHEK cells assessed as upregulation of HMGCS2 mRNA at 10 uM incubated for 3 days by qRT-PCR analysis; format: cell-based; conditions: filed as agonist, time 3.0 day
[7] = tested on: Adipose tissue derived mesenchymal stem cell; test: Induction of adipogenesis in human AT-MSC cells assessed as increase in lipid droplet at 30 uM in IDX medium incubated for 5 days by Oil Red O staining based inverted phase microscopy relative to IDX control; format: functional; conditions: time 5.0 day
[8] = tested on: Adipose tissue derived mesenchymal stem cell; test: Induction of adipogenesis in human AT-MSC cells assessed as increase in intracellular lipid accumulation at 30 uM in IDX medium incubated for 5 days by Oil Red O staining based inverted phase microscopy relative to IDX control; format: functional; conditions: time 5.0 day
[9] = target: T1, PPAR alpha/gamma (Homo sapiens); test: Agonist activity at PPARalpha/PPARgamma in human AT-MSC cells assessed as upregulation of ACACB mRNA at 10 uM incubated for 3 days by qRT-PCR analysis; format: cell-based; conditions: Adipose tissue derived mesenchymal stem cell, filed as agonist, time 3.0 day
[10] = target: T1, PPAR alpha/gamma (Homo sapiens); test: Agonist activity at PPARalpha/PPARgamma in human NHEK cells assessed as upregulation of HMGCR mRNA at 10 uM incubated for 3 days by qRT-PCR analysis; format: cell-based; conditions: time 3.0 day
[11] = target: T2, Peroxisome proliferator-activated receptor gamma (Homo sapiens) (UniProt P37231); test: (§1) Binding affinity to human recombinant PPARgamma by Cheng-Prusoff equation based competitive binding TR-FRET assay; conditions: filed as agonist
T2 sequence (whole entry): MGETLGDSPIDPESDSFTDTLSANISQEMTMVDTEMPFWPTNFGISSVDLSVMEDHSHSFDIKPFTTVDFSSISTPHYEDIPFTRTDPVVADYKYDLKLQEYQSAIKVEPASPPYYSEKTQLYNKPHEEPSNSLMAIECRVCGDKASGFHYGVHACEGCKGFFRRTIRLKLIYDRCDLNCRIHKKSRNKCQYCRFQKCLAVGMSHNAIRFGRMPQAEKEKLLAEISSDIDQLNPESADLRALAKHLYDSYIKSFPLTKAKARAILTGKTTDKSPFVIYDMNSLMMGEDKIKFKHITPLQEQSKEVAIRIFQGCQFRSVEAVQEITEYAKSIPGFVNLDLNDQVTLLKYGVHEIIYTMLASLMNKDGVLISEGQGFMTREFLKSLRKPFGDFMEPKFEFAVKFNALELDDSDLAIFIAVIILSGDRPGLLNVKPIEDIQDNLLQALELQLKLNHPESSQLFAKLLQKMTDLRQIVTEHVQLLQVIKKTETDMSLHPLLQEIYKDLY

[12] = target: T3, Peroxisome proliferator-activated receptor gamma (Homo sapiens, UniProt P37231); test: as §1
T3 sequence (P37231 whole entry): T2 sequence (whole entry)

[13] = target: T1, PPAR alpha/gamma (Homo sapiens); test: Agonist activity at PPARalpha/PPARgamma in human AT-MSC cells assessed as upregulation of SCD1 mRNA at 10 uM incubated for 3 days by qRT-PCR analysis; format: cell-based; conditions: Adipose tissue derived mesenchymal stem cell, filed as agonist, time 3.0 day
[14] = target: T2, Peroxisome proliferator-activated receptor gamma (Homo sapiens); test: Binding affinity to human recombinant PPARgamma at 30 uM by competitive binding based TR-FRET assay relative to control; conditions: filed as agonist
[15] = target: T1, PPAR alpha/gamma (Homo sapiens); test: Agonist activity at PPARalpha/PPARgamma in human AT-MSC cells assessed as upregulation of FABP4 mRNA at 10 uM incubated for 3 days by qRT-PCR analysis; format: cell-based; conditions: Adipose tissue derived mesenchymal stem cell, filed as agonist, time 3.0 day
[16] = target: T1, PPAR alpha/gamma (Homo sapiens); test: Agonist activity at PPARalpha/PPARgamma in human AT-MSC cells assessed as upregulation of HMGCR mRNA at 10 uM incubated for 3 days by qRT-PCR analysis; format: cell-based; conditions: Adipose tissue derived mesenchymal stem cell, filed as agonist, time 3.0 day
[17] = target: T1, PPAR alpha/gamma (Homo sapiens); test: Agonist activity at PPARalpha/PPARgamma in human NHEK cells assessed as upregulation of SCD1 mRNA at 10 uM incubated for 3 days by qRT-PCR analysis; format: cell-based; conditions: filed as agonist, time 3.0 day
[18] = target: T1, PPAR alpha/gamma (Homo sapiens); test: Agonist activity at PPARalpha/PPARgamma in human AT-MSC cells assessed as upregulation of FADS2 mRNA at 10 uM incubated for 3 days by qRT-PCR analysis; format: cell-based; conditions: Adipose tissue derived mesenchymal stem cell, filed as agonist, time 3.0 day
[19] = target: T4, Peroxisome proliferator-activated receptor alpha (Homo sapiens, UniProt Q07869); test: (§2) Binding affinity to human recombinant PPARalpha by Cheng-Prusoff equation based competitive binding TR-FRET assay
T4 sequence (Q07869 whole entry): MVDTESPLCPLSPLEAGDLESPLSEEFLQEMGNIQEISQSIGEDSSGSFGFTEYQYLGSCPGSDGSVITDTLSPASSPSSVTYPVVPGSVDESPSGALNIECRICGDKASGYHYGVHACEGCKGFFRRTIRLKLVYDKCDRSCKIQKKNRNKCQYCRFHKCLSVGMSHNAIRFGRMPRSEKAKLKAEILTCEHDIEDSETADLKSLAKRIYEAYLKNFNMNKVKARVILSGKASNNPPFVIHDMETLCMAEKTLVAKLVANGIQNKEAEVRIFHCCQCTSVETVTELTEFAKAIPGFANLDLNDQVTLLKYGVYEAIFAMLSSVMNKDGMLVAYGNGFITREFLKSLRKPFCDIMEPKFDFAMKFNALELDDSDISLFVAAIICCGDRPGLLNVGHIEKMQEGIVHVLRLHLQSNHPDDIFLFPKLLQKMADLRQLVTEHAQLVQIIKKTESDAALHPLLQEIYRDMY

[20] = target: T5, Peroxisome proliferator-activated receptor alpha (Homo sapiens) (UniProt Q07869); test: as §2; conditions: filed as agonist
T5 sequence (whole entry): T4 sequence (Q07869 whole entry)

In the case of `COc1ccc(OC)c(/C=C/C(=O)OCc2cc(=O)c(O)co2)c1`, the “fold change (FC)” value [1] is reported as 3.83, the Activity [2] is reported as “Active” and the EC50 [3] is reported as 7.6 µM. For the same compound, the Activity [4] was “inactive”, the Activity [5] was “inactive” and the Activity [6] was “Active”. For the same compound, the Activity [7] was “Active”, the Activity [8] was “Active” and the Activity [9] was “Active”. For the same compound, the Activity [10] was “inactive”, the Activity [11] was “Dose-dependent effect” and the Ki [12] was 7 µM. The Activity [13] was “Active”, the Activity [14] was 77% and the Activity [15] was “Active”. For the same compound, the Activity [16] was “Active”, the Activity [17] was “Active” and the Activity [18] was “Active”. The Ki [19] was 9.5 µM and the Activity [20] was “Dose-dependent effect”.
